From ChEMBL document CHEMBL1153171, “Coumarins as novel 17beta-hydroxysteroid dehydrogenase type 3 inhibitors for potential treatment of prostate cancer” (Bioorg Med Chem Lett, 2010) come the findings set out here.

Test [1] has as its target T1, 17-beta-hydroxysteroid dehydrogenase type 3 (Homo sapiens, UniProt P37058).
T1 sequence (P37058 whole entry): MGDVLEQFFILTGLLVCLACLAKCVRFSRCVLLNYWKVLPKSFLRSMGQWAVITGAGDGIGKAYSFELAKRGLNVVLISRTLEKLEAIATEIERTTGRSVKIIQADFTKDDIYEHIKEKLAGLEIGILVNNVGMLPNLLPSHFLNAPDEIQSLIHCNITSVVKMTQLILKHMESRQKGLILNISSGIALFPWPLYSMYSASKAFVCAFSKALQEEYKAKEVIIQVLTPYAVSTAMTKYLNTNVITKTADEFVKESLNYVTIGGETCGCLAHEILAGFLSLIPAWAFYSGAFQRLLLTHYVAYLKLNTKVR
Description: Inhibition of human 17beta-HSD3 expressed in HeLa cells. The class given is cell-based.

Test [2] has as its target T2, Androgen receptor (Homo sapiens, UniProt P10275).
T2 sequence (P10275 whole entry): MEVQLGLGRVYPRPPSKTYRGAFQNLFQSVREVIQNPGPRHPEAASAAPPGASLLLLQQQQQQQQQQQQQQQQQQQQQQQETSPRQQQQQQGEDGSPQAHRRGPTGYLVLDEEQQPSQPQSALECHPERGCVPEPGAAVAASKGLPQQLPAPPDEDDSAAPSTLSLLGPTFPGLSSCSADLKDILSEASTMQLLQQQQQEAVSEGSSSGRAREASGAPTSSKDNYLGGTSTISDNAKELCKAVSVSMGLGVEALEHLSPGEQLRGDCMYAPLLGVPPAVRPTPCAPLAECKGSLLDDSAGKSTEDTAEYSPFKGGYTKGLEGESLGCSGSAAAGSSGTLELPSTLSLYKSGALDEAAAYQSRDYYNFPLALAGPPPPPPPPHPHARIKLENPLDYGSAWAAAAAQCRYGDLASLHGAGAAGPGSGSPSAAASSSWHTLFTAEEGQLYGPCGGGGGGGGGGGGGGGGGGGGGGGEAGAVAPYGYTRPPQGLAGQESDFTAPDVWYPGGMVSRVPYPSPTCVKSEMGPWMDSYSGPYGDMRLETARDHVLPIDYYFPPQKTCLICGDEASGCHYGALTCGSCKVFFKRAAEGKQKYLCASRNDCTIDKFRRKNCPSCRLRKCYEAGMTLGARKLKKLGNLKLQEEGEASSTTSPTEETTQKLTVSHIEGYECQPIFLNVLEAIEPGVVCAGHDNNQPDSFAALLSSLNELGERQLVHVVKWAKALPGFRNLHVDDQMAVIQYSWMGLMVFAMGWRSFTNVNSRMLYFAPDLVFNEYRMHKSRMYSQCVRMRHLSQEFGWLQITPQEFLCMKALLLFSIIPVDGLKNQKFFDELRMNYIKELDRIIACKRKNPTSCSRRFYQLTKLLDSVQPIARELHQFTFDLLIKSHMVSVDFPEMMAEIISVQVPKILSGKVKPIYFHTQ
Kind of test: Antagonist activity at AR by reporter gene assay. The test is classed as functional. On the technique in general: Reporter assays use an easily measured gene product as a stand-in for the process of interest.

Test [3] concerns the target T2, Androgen receptor. Kind of test: Agonist activity at AR by reporter gene assay. The class given is functional.
The target of test [4] is T3, Estrogen receptor (Homo sapiens, UniProt P03372).
T3 sequence (P03372 whole entry): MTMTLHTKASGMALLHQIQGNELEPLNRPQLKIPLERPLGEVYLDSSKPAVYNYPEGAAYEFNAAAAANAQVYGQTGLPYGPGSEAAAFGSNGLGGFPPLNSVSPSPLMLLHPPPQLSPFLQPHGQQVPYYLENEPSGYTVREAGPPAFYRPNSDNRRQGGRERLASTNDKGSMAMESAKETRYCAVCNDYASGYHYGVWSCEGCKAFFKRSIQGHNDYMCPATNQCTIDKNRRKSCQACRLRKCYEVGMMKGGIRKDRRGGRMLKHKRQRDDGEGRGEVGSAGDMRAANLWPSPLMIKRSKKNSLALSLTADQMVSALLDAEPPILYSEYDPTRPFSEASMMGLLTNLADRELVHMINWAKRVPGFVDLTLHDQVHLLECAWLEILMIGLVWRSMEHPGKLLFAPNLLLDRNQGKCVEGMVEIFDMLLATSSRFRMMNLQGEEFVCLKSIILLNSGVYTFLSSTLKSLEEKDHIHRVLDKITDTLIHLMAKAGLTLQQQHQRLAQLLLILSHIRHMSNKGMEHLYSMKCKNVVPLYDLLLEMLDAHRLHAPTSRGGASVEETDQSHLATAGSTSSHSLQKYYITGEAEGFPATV
Description: Antagonist activity at ER by reporter gene assay. The test is classed as functional.

Test [5] deals with T3, Estrogen receptor. Description: Agonist activity at ER by reporter gene assay. The class given is functional.
In test [6] the target is T4, Glucocorticoid receptor (Homo sapiens, UniProt P04150).
T4 sequence (P04150 whole entry): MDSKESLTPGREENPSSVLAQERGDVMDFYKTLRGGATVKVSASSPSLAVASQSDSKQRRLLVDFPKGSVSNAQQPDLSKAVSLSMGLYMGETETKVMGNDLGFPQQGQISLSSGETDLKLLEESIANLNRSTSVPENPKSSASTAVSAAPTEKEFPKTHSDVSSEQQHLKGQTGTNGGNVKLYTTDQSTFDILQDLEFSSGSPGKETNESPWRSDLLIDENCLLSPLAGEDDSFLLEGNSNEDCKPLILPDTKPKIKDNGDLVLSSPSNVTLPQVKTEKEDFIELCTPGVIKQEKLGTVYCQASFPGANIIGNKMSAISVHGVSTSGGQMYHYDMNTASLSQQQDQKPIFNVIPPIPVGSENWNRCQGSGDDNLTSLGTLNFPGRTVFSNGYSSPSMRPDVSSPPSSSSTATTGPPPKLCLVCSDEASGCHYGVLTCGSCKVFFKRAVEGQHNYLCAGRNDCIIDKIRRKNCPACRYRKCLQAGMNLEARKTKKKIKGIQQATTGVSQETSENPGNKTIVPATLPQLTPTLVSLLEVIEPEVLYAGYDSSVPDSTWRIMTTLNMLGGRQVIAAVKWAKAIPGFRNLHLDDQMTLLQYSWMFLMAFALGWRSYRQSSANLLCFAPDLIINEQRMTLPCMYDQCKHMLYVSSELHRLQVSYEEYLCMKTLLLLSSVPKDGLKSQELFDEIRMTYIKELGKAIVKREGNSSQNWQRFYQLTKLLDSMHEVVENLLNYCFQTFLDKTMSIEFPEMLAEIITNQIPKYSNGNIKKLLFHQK
Kind of test: Antagonist activity at GR by reporter gene assay. The class given is functional.

The target of test [7] is T4, Glucocorticoid receptor. Description: Agonist activity at GR by reporter gene assay. The test is classed as functional.
In test [8] the target is T5, 17-beta-hydroxysteroid dehydrogenase type 1 (Homo sapiens, UniProt P14061).
T5 sequence (P14061 whole entry): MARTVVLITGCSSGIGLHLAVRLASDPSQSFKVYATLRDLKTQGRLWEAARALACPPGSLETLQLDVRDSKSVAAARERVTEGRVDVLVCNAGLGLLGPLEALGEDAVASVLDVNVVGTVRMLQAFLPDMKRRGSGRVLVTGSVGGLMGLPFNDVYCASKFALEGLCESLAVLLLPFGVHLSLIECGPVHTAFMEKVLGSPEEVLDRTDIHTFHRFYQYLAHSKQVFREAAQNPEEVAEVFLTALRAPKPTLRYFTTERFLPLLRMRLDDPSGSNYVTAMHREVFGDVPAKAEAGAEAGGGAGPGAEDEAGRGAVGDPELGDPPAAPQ
Kind of test: Inhibition of 17beta-HSD1 by human cell based assay.

Test [9] concerns the target T6, 17-beta-hydroxysteroid dehydrogenase type 2 (Homo sapiens, UniProt P37059).
T6 sequence (P37059 whole entry): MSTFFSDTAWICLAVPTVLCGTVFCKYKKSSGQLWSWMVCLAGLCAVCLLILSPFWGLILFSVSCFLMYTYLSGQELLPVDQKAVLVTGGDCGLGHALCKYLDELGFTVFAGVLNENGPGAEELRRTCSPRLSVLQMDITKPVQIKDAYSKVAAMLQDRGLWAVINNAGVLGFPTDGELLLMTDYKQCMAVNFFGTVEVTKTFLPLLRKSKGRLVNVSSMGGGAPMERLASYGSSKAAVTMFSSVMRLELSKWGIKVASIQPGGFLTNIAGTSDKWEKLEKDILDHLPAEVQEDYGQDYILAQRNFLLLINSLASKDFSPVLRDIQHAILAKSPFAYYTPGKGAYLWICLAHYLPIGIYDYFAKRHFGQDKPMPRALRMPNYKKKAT
Description: Inhibition of 17beta-HSD2 by human cell based assay.

As a reminder, the IC50 is the midpoint of a concentration-inhibition curve. `O=c1cc(C(F)(F)F)c2ccc(O)cc2o1` had an IC50 in [1] of 190 nM.
In test [1], `Cc1c(C)c2ccc(O)cc2oc1=O` gave an IC50 of 210 nM.
Same read-out and setting: the result for `O=c1cc(-c2ccccc2)c2ccc(O)cc2o1` reads 1000 nM; that for `O=c1cc(CSc2nncs2)c2ccc(O)cc2o1`, 200 nM.
Same read-out and setting: next, `O=c1cc(CSc2nccs2)c2ccc(O)cc2o1`: 10 nM.
With `Cc1cccc(SCc2cc(=O)oc3cc(O)ccc23)n1`, the IC50 on Androgen receptor [2] (read-out: IC50) was 50 µM; in test [1], 1.5 nM; at Androgen receptor [3], “Not Active”; against Estrogen receptor [4], “Not Active”; at Estrogen receptor [5] (read-out: IC50), 50 µM; against Glucocorticoid receptor [6], “Not Active”. In addition, the IC50 result (on Glucocorticoid receptor [7]; in [8]; in [9]) was “Not Active” in each case.
Turning to `Cc1cccc(CCc2cc(=O)oc3cc(O)ccc23)n1`, the IC50 entry on Androgen receptor [2] is “Not Active”; in test [1] it was 8 nM; on Androgen receptor [3], “Not Active”; against Estrogen receptor [4], “Not Active”; at Estrogen receptor [5] it was “Not Active”; on Glucocorticoid receptor [6] it was “Not Active”. Further, the IC50 result (on Glucocorticoid receptor [7]; in [8]; in [9]) was “Not Active” throughout.
Compound `Cc1c(Cl)c(=O)oc2cc(O)ccc12` displayed an IC50 in [1] of 100 nM.
On the same count and under the same terms, the result for `O=c1cc(CSc2ccccn2)c2ccc(O)cc2o1` reads 3 nM; that for `O=c1cc(CSc2ncccn2)c2ccc(O)cc2o1`, 1000 nM.
The same measure, in the same setting: next, `O=c1cc(CSC2NCCS2)c2ccc(O)cc2o1` (stereo not given): 96 nM.
`O=c1cc(CSc2ccc([N+](=O)[O-])cn2)c2ccc(O)cc2o1`: inhibition in test [1] was half-maximal at 88 nM (IC50).
For the compound `O=c1cc(CSc2ccc(C(F)(F)F)cn2)c2ccc(O)cc2o1`, the half-inhibitory concentration (IC50) in test [1] was 230 nM.
On the same count and under the same terms, the result for `Cc1cccc(SCc2c(F)c(=O)oc3cc(O)ccc23)n1` reads 27 nM; that for `Cc1cccc(SCc2c(Cl)c(=O)oc3cc(O)ccc23)n1`, 47 nM; that for `O=c1oc2cc(O)ccc2c(C(F)(F)F)c1CSc1ccccn1`, 320 nM.
As to `CCCc1c(C)c2ccc(O)cc2oc1=O`, the half-maximal inhibitory concentration (IC50) in test [1] was 240 nM.
The same measure, in the same setting: the result for `Cc1c(Cc2ccccc2)c(=O)oc2cc(O)ccc12` reads 200 nM.
As for `O=c1oc2cc(O)ccc2c(C(F)(F)F)c1Cc1ccccc1`, the IC50 was 6 µM on Androgen receptor [2] (read-out: IC50); 30 nM in [1]; “Not Active” on Androgen receptor [3]; “Not Active” against Estrogen receptor [4]; 1 µM on Estrogen receptor [5] (read-out: IC50); “Not Active” at Glucocorticoid receptor [6]. Besides, the IC50 result (at Glucocorticoid receptor [7]; in test [8]; in test [9]) was “Not Active” throughout.
As to `COCc1cc(=O)oc2cc(O)ccc12`, in [1], the concentration for half-maximal inhibition (IC50) was 5000 nM.
Still for that read-out and setting: next, `O=c1cc(Cc2ccccc2)c2ccc(O)cc2o1`: 10000 nM.
In the case of `O=c1cc(CCc2ccccc2)c2ccc(O)cc2o1`, the IC50 in test [1] was found to be 20 nM.
As to `O=c1cc(COc2ccccc2)c2ccc(O)cc2o1`, the IC50 in [1] stood at 10000 nM.
Same read-out and setting: next, `O=c1cc(CNc2ccccc2)c2ccc(O)cc2o1`: 4000 nM; `O=c1cc(CSc2cccs2)c2ccc(O)cc2o1`: 420 nM; `Cc1cc2ccc(O)cc2oc1=O`: 1000 nM.
Still for that read-out and setting: the result for `Cc1c(C#N)c(=O)oc2cc(O)ccc12` reads 1000 nM; that for `Cc1cccc(OCCc2cc(=O)oc3cc(O)ccc23)n1`, 1000 nM.
In turn, `CCc1cc(=O)oc2cc(O)ccc12` displayed an IC50 in [1] of 100 nM.
On the same count and under the same terms, the result for `CN(Cc1cc(=O)oc2cc(O)ccc12)c1ccccc1` reads 6000 nM.
The same measure, in the same setting: the result for `Cn1ccnc1SCc1cc(=O)oc2cc(O)ccc12` reads 91 nM; that for `O=c1cc(CSc2ccccc2)c2ccc(O)cc2o1`, 93 nM; that for `CCCc1cc(=O)oc2cc(O)ccc12`, 59 nM.
The same measure, in the same setting: the result for `O=c1cc(CSc2ccncc2)c2ccc(O)cc2o1` reads 5000 nM.
`Cc1c(F)c(=O)oc2cc(O)ccc12` displayed an IC50 in [1] of 1000 nM.
On the same count and under the same terms, next, `Cc1cc(=O)oc2cc(O)ccc12` [HYMECROMONE]: 1000 nM.
